Assay results reported in patent US9115134B2, “6-triazolopyridazine sulfanyl benzothiazole derivatives as MET inhibitors” (SANOFI, priority 2007, dated 2015).
pIC50: −log10 of the molar value.

Experiments:
[1] = system: HCT116 cells, MKN45 cells; test: Test C: Measurement of cell proliferation by 14C-thymidine pulse; format: cell-based; details: 14C-thymidine incorporation, 96 h of treatment; cell line not given
How it was run: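 HCT116 (2500/well, DMEM) and MKN45 (7500/well, RPMI), both with 10% FCS, treated after 4 h with 10 concentrations from 10 000 to 0.3 nM (3-fold, duplicate). ¹⁴C-thymidine (0.1 μCi/well) added at 72 h; incorporation read after 24 h pulse, 96 h total treatment.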

MET [2] = molecular target: T1, MET (Homo sapiens, UniProt P08581); test: Test B: Inhibition of the autophosphorylation of MET; ELISA technique (pppY1230,1234,1235) in MKN45 cells; format: cell-based; parameters: Seed MKN45 cells into 96-well plates (Cell coat BD polylysine) at 20 000 cells/well; endogenous in cells; host or cells: MKN45 cells; details: 1 h treatment, PhosphoMET ELISA
How it was run: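 Adhered cells treated 1 h with six compound concentrations in duplicate, final 10 000 to 30 nM, against DMSO controls. Cells then lysed at 4° C for 30 min in Triton/SDS/deoxycholate buffer with phosphatase inhibitors. Phospho-MET measured by sandwich ELISA with anti-phospho MET antibody and HRP detection, absorbance at 450 nm.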
Target sequence in this assay (P08581 25-1390): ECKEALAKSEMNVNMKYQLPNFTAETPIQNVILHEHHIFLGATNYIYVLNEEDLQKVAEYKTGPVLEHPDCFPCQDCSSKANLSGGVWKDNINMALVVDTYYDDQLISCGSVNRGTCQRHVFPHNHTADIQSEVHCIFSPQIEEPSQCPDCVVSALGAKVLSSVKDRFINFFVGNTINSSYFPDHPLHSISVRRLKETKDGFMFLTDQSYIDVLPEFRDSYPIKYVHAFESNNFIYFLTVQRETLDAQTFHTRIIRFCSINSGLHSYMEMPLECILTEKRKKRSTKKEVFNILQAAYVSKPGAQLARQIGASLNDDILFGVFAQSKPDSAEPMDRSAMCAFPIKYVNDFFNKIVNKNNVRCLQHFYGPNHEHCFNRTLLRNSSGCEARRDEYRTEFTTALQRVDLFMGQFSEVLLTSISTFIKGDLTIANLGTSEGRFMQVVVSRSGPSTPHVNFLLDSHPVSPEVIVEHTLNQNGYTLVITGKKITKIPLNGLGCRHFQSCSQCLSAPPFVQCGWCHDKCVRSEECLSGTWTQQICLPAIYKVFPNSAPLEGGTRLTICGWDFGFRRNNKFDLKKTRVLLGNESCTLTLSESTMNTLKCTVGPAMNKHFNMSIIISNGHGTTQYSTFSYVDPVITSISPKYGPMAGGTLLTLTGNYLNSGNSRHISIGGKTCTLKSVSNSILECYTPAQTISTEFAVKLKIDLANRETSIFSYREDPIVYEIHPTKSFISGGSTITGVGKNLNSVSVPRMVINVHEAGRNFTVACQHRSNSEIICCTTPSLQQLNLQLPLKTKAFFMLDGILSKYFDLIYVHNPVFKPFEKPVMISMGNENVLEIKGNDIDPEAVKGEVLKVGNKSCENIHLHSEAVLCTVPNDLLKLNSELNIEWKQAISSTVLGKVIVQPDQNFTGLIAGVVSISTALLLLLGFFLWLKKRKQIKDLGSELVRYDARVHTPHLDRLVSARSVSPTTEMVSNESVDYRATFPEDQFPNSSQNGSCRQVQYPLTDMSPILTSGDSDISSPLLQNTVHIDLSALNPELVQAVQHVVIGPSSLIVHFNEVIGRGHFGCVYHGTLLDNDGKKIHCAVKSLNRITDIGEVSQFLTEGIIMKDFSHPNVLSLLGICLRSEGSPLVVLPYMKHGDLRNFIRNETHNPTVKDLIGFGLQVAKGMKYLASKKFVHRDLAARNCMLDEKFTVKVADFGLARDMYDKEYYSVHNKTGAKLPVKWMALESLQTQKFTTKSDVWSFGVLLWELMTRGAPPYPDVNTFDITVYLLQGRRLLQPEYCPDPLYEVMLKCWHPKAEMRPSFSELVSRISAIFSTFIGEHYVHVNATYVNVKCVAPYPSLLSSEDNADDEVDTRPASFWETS

MET [3] = molecular target: T1, MET; test: Test A: HTRF MET assay in 96-well format; format: biochemical; parameters: The His-Tev-MET (956-1390) recombinant DNA in pFastBac (Invitrogen) is transfected into insect cells; His tag (N, cleaved yes); TEV cleavage site (N); made in house; host or cells: SF21 insect cells (baculovirus, pFastBac); details: MET 5 nM, 10 μM ATP
How it was run: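 Purified human MET cytoplasmic domain (956-1390, His tag cleaved), 5 nM, with compound (0.17 nM–10 μM, 3% DMSO) in MOPS pH 7.4; 1 μg/ml poly-(GAT), 10 μM ATP, 5 mM MgCl2, 10 min at ambient temperature. HTRF read-out (streptavidin-XL/anti-pTyr Eu cryptate, 2 h); % inhibition from 665/620 ratios.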
Target sequence in this assay (P08581 956-1390): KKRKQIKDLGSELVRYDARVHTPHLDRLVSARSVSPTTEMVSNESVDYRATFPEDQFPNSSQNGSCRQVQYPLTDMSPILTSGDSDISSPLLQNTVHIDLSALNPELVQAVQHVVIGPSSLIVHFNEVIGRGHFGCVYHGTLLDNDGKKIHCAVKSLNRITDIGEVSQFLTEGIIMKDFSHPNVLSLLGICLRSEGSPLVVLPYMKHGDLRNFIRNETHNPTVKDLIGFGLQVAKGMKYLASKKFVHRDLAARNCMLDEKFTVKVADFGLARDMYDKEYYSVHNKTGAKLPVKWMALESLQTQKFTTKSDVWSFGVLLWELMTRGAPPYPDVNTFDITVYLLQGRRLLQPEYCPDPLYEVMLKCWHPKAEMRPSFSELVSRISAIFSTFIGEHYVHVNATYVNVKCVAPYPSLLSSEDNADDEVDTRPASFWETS

Row | pIC50 [1] | pIC50 (MET [2]) | pIC50 (MET [3]) | melting point | Structure (SMILES)
1 | > 6.00 | 6.30 to 7.00 | > 7.00 | – | CCOc1ccc2nnc(Sc3ccc4nc(N)sc4c3)n2n1 [Example 50, 6-[(6-Ethoxy[1,2,4]triazolo[4,3-b]pyridazin-3-yl)sulphanyl]-1,3-benzothiazol-2-amine]
2 | > 6.00 | > 7.00 | > 7.00 | – | CC(CO)(CCl)COc1ccc2nnc(Sc3ccc4nc(NC(=O)OC(C)(C)C)sc4c3)n2n1 (stereo not shown) [Example 52, 2-Methylpropan-2-yl[6-({6-[3-chloro-2-(hydroxymethyl)-2-methylpropoxy]-[1,2,4]triazolo[4,3-b]pyridazin-3-yl}sulphanyl)-1,3-benzothiazol-2-yl]carbamate]
3 | > 6.00 | > 7.00 | > 7.00 | – | Nc1nc2ccc(Sc3nnc4ccc(-c5cccc(F)c5)nn34)cc2s1 [Example 53, 6-{[6-(3-Fluorophenyl)[1,2,4]triazolo[4,3-b]pyridazin-3-yl]sulphanyl}-1,3-benzothiazol-2-amine]
4 | > 6.00 | 6.30 to 7.00 | > 7.00 | – | Nc1nc2ccc(Sc3nnc4n3N=C(c3cccc(F)c3)CC4)cc2s1 [Example 54, 6-{[6-(3-Fluorophenyl)-7,8-dihydro[1,2,4]triazolo[4,3-b]pyridazin-3-yl]sulphanyl}-1,3-benzothiazol-2-amine]
5 | > 6.00 | 6.30 to 7.00 | > 7.00 | – | O=C(Nc1nc2ccc(Sc3nnc4ccc(-c5ccc(F)cc5)nn34)cc2s1)N1CCOCC1 [Example 55, N-(6-{[6-(4-Fluorophenyl)[1,2,4]triazolo[4,3-b]pyridazin-3-yl]sulphanyl}-1,3-benzothiazol-2-yl)morpholine-4-carboxamide]
6 | > 6.00 | 6.30 to 7.00 | > 7.00 | – | Nc1nc2ccc(Sc3nnc4ccc(-c5ccccc5F)nn34)cc2s1 [Example 56, 6-{[6-(2-Fluorophenyl)[1,2,4]triazolo[4,3-b]pyridazin-3-yl]sulphanyl}-1,3-benzothiazol-2-amine]
7 | > 6.00 | 6.30 to 7.00 | > 7.00 | – | CCC(C)CNc1nc2ccc(Sc3nnc4ccc(NCCOC)nn34)cc2s1 (stereo not shown) [Example 57, N-(2-Methoxyethyl)-3-({2-[(2-methylbutyl)amino]-1,3-benzothiazol-6-yl}sulphanyl)[1,2,4]triazolo[4,3-b]pyridazin-6-amine]
8 | > 6.00 | > 7.00 | > 7.00 | – | CCOc1ccc2nnc(Sc3ccc4nc(NC(=O)CCOC)sc4c3)n2n1 [Example 58, N-{6-[(6-Ethoxy[1,2,4]triazolo[4,3-b]pyridazin-3-yl)sulphanyl]-1,3-benzothiazol-2-yl}-3-methoxypropanamide]
9 | > 6.00 | > 7.00 | > 7.00 | – | CCOc1ccc2nnc(Sc3ccc4nc(NC(=O)NC5CC5)sc4c3)n2n1 [Example 59, 1-cyclopropyl-3-{6-[(6-ethoxy[1,2,4]triazolo[4,3-b]pyridazin-3-yl)sulphanyl]-1,3-benzothiazol-2-yl}urea]
10 | > 6.00 | > 7.00 | > 7.00 | – | O=C(Nc1nc2ccc(Sc3nnc4ccc(-c5ccc(F)cc5)nn34)cc2s1)C1CC1 [Example 60, N-(6-{[6-(4-Fluorophenyl)[1,2,4]triazolo[4,3-b]pyridazin-3-yl]sulphanyl}-1,3-benzothiazol-2-yl)cyclopropanecarboxamide]
11 | > 6.00 | > 7.00 | > 7.00 | – | O=C(Nc1nc2ccc(Sc3nnc4n3N=C(c3ccc(F)cc3)CC4)cc2s1)C1CC1 [Example 61, N-(6-{[6-(4-Fluorophenyl)-7,8-dihydro[1,2,4]triazolo[4,3-b]pyridazin-3-yl]sulphanyl}-1,3-benzothiazol-2-yl)cyclopropanecarboxamide]
12 | > 6.00 | > 7.00 | > 7.00 | – | Nc1nc2ccc(Sc3nnc4ccc(NC5CCCCC5)nn34)cc2s1 [Example 62, 3-[(2-Amino-1,3-benzothiazol-6-yl)sulphanyl]-N-cyclohexyl[1,2,4]triazolo[4,3-b]pyridazin-6-amine]
13 | > 6.00 | 6.30 to 7.00 | > 7.00 | – | Nc1nc2ccc(Sc3nnc4ccc(OC5CCCCC5)nn34)cc2s1 [Example 63, 6-{[6-(Cyclohexyloxy)[1,2,4]triazolo[4,3-b]pyridazin-3-yl]sulphanyl}-1,3-benzothiazol-2-amine]
14 | > 6.00 | > 7.00 | > 7.00 | – | O=C(NCCN1CCOCC1)Nc1nc2ccc(Sc3nnc4ccc(-c5cccc(F)c5)nn34)cc2s1 [Example 64, 1-(6-{[6-(3-Fluorophenyl)[1,2,4]triazolo[4,3-b]pyridazin-3-yl]sulphanyl}-1,3-benzothiazol-2-yl)-3-[2-(morpholin-4-yl)ethyl]urea]
15 | > 6.00 | > 7.00 | > 7.00 | – | CC(=O)Nc1nc2ccc(Sc3nnc4ccc(-c5cccc(F)c5)nn34)cc2s1 [Example 65, N-(6-{[6-(3-Fluorophenyl)[1,2,4]triazolo[4,3-b]pyridazin-3-yl]sulphanyl}-1,3-benzothiazol-2-yl)acetamide]
16 | > 6.00 | 6.30 to 7.00 | > 7.00 | – | CC(C)C(=O)Nc1nc2ccc(Sc3nnc4ccc(-c5ccc(F)cc5)nn34)cc2s1 [Example 66, N-(6-{[6-(4-Fluorophenyl)[1,2,4]triazolo[4,3-b]pyridazin-3-yl]sulphanyl}-1,3-benzothiazol-2-yl)-2-methylpropanamide]
17 | > 6.00 | > 7.00 | > 7.00 | – | O=C(Nc1nc2ccc(Sc3nnc4ccc(-c5cccc(F)c5)nn34)cc2s1)C1CC1 [Example 67, N-(6-{[6-(3-Fluorophenyl)[1,2,4]triazolo[4,3-b]pyridazin-3-yl]sulphanyl}-1,3-benzothiazol-2-yl)cyclopropanecarboxamide]
18 | > 5.00 | < 6.30 | > 6.30 | 220 °C | CCC(C)CNc1nc2ccc(Sc3nnc4n3N=C(c3ccc(F)cc3)CC4)cc2s1 (stereo not shown) [Example 68, 6-{[6-(4-Fluorophenyl)-7,8-dihydro[1,2,4]triazolo[4,3-b]pyridazin-3-yl]sulphanyl}-N-(2-methylbutyl)-1,3-benzothiazol-2-amine]

Row | Structure (SMILES) | pIC50 [1] | pIC50 (MET [2]) | pIC50 (MET [3]) | melting point
19 | CC(C)(C)OC(=O)Nc1nc2ccc(Sc3nnc4ccc(OCC(O)CCCl)nn34)cc2s1 (stereo not shown) [Example 51, 2-Methylpropan-2-yl(6-{[6-(4-chloro-2-hydroxybutoxy)[1,2,4]triazolo[4,3-b]pyridazin-3-yl]sulphanyl}-1,3-benzothiazol-2-yl)carbamate] | > 6.00 | > 7.00 | > 7.00 | –
